Measurements: patent publication US20180327354A1, “Unnatural Analogues of Calcitriol and Uses Thereof” (Vidasym, Inc., priority 2009, published 2018)
“Also recorded” adds a separate entry of the source.

Tested on: thrombomodulin
Assay: Thrombomodulin protein in human coronary artery smooth muscle cells (Western blot)
Format: cell-based
Details: HCASMC, 48 h, FIG. 21B
Protocol: Human coronary artery smooth muscle cells (HCASM) were incubated with Vida-5 or Vida-11 at different concentrations for 48 h and then were solubilized in 50 al of SDS-PAGE sample buffer. The protein content in each sample was determined by the bicinchoninic acid protein assay. Samples were resolved by SDS-PAGE using a 4-12% NuPAGE gel, and proteins were electrophoretically transferred to polyvinylidene fluoride membrane for Western blotting. The membrane was blocked for 1 h at 25° C. with 5% nonfat dry milk in phosphate buffered saline Tween-20 (PBS-T) and then incubated with a mouse anti-thrombospondin-1 monoclonal antibody (2,000-fold dilution), or a mouse anti-TM monoclonal antibody (2,000-fold dilution) in PBS-T overnight at 4° C.
The membrane was washed with PBS-T and incubated with a horseradish peroxidase-labeled anti-mouse antibody for 1 h at 25° C. The membrane was then incubated with Amersham ECL Plus Western Blotting Detection Reagents. Specific bands were visualized by the Multiimage II of Alpha Innotech imaging system. Band intensity was quantified using Spot Denso.

C=C1[C@H](O)CC(=C/C=C2\CCCC3(C)C2CCC3[C@@H](C)OC[C@H](C)C(C)(C)O)C[C@H]1O (stereo partly drawn) [Vida-5, (1R,3R)-5-((E)-2-((3αS,7αS)-1-((R)-1-((S)-3-hydroxy-2,3-dimethylbutoxy)ethyl)-7α-methyldihydro-1H-inden-4(2H,5H,6H, 7H, 7αH)-ylidene)ethylidene)-2-methylenecyclohexane-1,3-diol]
thrombomodulin protein expression: induce; also recorded: increased
